Measurements from paper PMC7576608, “Mechanisms of telomerase inhibition by oxidized and therapeutic dNTPs” (Nature Communications, 2020).
Values joined by “and” are separate entries in the source; they are usually repeats but may differ in a detail not shown here. Identical values can stand only once. Like-named read-outs stand apart in the source and are kept apart here.

Target: telomerase (Homo sapiens, UniProt O14746)
Test: Telomerase repeat processivity IC50: modified dNTP titrated into reactions with all four natural dNTPs
Assay type: biochemical
Parameters: made in house; anti-FLAG immunopurification, eluted with 3xFLAG peptide
Conditions: for Best-fit values HillSlope / Best-fit values Span / Best-fit values LogIC50: dose-response fit of processivity R 1/2; for Best-fit values LogIC50: log of concentration in μM; for Best-fit values Bottom / Best-fit values Top: dose-response fit of processivity R 1/2 vs log(concentration)
In short: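 Immunopurified human telomerase reactions with cellular-relevant levels of all four natural dNTPs plus modified dNTP titrated 0–10,000 μM, 1 h at 37 °C; products resolved on denaturing gels and phosphorimaged. Repeat processivity R1/2 = −ln(2)/slope of ln(100−%LB) vs repeat number; IC50 is concentration halving bulk repeat processivity.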

[1] = cellular relevant natural dNTPs, modified dNTP titrated 0 to 10,000 μM, based on repeat processivity, mean ± SD, read-out: Telomerase processivity IC50
[2] = fit of R 1/2 vs log(concentration), 8-oxo-dGTP, replicates N1-N4
[3] = log of processivity IC50 (concentration in μM), Supplementary Fig 8b, read-out: Log IC50 (converted)
[4] = modified dNTP concentration 31.25 μM, individual replicates n1-n3
[5] = modified dNTP concentration 500 μM, individual replicates
[6] = modified dNTP concentration 1000 μM, individual replicates
[7] = modified dNTP concentration 2000 μM, individual replicates
[8] = repeat processivity R 1/2, individual replicates N1-N3, read-out: Best-fit values IC50
[9] = repeat processivity R 1/2, mean of replicates, read-out: Mean IC50

Sequence of telomerase (O14746 whole entry): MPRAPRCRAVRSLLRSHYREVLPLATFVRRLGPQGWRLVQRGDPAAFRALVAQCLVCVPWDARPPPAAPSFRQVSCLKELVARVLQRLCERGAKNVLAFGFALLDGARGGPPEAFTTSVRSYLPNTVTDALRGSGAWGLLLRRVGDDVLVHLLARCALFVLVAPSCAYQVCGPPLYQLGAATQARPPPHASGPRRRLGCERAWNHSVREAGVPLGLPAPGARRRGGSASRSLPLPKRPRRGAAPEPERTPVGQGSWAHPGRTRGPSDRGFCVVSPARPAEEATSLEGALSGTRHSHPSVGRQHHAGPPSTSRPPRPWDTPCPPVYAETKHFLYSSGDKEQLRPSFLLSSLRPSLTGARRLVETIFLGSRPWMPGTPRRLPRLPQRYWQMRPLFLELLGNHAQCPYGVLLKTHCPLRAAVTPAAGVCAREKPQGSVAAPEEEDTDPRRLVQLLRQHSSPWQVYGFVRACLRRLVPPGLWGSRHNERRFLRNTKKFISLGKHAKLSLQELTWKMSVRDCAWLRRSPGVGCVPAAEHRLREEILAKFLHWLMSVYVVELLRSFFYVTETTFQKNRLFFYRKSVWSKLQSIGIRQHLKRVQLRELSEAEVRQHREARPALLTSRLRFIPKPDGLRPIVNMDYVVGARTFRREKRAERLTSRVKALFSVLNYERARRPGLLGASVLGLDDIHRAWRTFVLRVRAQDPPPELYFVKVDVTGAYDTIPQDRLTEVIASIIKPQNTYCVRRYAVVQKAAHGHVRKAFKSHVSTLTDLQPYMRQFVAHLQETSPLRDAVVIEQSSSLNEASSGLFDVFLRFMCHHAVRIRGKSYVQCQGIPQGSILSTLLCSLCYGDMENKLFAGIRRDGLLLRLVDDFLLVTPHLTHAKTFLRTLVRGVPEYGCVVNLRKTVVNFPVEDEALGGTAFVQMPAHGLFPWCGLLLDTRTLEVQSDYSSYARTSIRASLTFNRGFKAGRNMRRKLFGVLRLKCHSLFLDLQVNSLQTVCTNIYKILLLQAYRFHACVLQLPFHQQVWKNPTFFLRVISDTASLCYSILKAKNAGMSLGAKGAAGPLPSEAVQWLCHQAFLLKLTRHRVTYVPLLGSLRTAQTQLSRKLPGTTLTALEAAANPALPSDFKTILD

Nc1nc2c([nH]c(=O)n2C2CC(O)C(COP(=O)(O)OP(=O)(O)OP(=O)(O)O)O2)c(=O)[nH]1 (centres unmarked) [8-oxo-dGTP]
Processivity R 1/2 (8-oxo-dGTP 156.25 μM, replicates n1-n4): 3.18 and 2.53 and 3.23
YIntercept (line fit of ln(100-%LB) vs # telomere repeats) (8-oxo-dGTP 160μM, n1-n3): 3.28 and 3.52 and 3.30
ln(100-%LB) (8-oxo-dGTP 160μM, telomere repeat 1, n1-n3): 3.67 and 3.81 and 3.65
ln(100-%LB) (8-oxo-dGTP 160μM, telomere repeat 2, n1-n3): 3.11 and 3.28 and 3.14
ln(100-%LB) (8-oxo-dGTP 160μM, telomere repeat 3, n1-n3): 2.62 and 2.68 and 2.65
ln(100-%LB) (8-oxo-dGTP 160μM, telomere repeat 4, n1-n3): 2.38 and 2.37 and 2.44
ln(100-%LB) (8-oxo-dGTP 160μM, telomere repeat 5, n1-n3): 2.10 and 2.03 and 2.19
ln(100-%LB) (8-oxo-dGTP 160μM, telomere repeat 6, n1-n3): 1.76 and 1.70 and 1.93
ln(100-%LB) (8-oxo-dGTP 160μM, telomere repeat 7, n1-n3): 1.44 and 1.37 and 1.64
ln(100-%LB) (8-oxo-dGTP 160μM, telomere repeat 8, n1-n3): 1.22 and 1.14 and 1.43
ln(100-%LB) (8-oxo-dGTP 160μM, telomere repeat 9, n1-n3): 0.99 and 0.88 and 1.23
ln(100-%LB) (8-oxo-dGTP 160μM, telomere repeat 10, n1-n3): 0.74 and 0.58 and 1.00
YIntercept (line fit of ln(100-%LB) vs # telomere repeats) (8-oxo-dGTP 625μM, n1-n3): 3.24 and 3.54 and 3.75
Processivity R 1/2 (8-oxo-dGTP 625 μM, replicates n1-n4): 2.67 and 2.52 and 3.04
ln(100-%LB) (8-oxo-dGTP 625μM, telomere repeat 1, n1-n3): 3.67 and 3.79 and 3.89
ln(100-%LB) (8-oxo-dGTP 625μM, telomere repeat 2, n1-n3): 3.11 and 3.31 and 3.40
ln(100-%LB) (8-oxo-dGTP 625μM, telomere repeat 3, n1-n3): 2.62 and 2.84 and 2.91
ln(100-%LB) (8-oxo-dGTP 625μM, telomere repeat 4, n1-n3): 2.38 and 2.60 and 2.62
ln(100-%LB) (8-oxo-dGTP 625μM, telomere repeat 5, n1-n3): 2.10 and 2.36 and 2.34
ln(100-%LB) (8-oxo-dGTP 625μM, telomere repeat 6, n1-n3): 1.76 and 2.09 and 2.01
ln(100-%LB) (8-oxo-dGTP 625μM, telomere repeat 7, n1-n3): 1.44 and 1.77 and 1.66
ln(100-%LB) (8-oxo-dGTP 625μM, telomere repeat 8, n1-n3): 1.22 and 1.56 and 1.41
ln(100-%LB) (8-oxo-dGTP 625μM, telomere repeat 9, n1-n3): 0.99 and 1.31 and 1.14
ln(100-%LB) (8-oxo-dGTP 625μM, telomere repeat 10, n1-n3): 0.74 and 1.05 and 0.85
ln(100-%LB) (8-oxo-dGTP 625μM, telomere repeat 11, n1-n3): 0.51 and 0.79 and 0.55
ln(100-%LB) (8-oxo-dGTP 625μM, telomere repeat 12, n1-n3): 0.32 and 0.58 and 0.29
YIntercept (line fit of ln(100-%LB) vs # telomere repeats) (8-oxo-dGTP 2500μM, n1-n3): 4.49 and 4.30 and 4.68
Processivity R 1/2 (8-oxo-dGTP 2500 μM, replicates n1-n4): 0.72 and 0.43 (2×) and 0.55
ln(100-%LB) (8-oxo-dGTP 2500μM, telomere repeat 1, n1-n3): 3.44 and 3.70 and 3.07
Processivity R 1/2 (8-oxo-dGTP 5000 μM, replicates n1-n4): 0
Processivity R 1/2 (8-oxo-dGTP 10000 μM, replicates n1-n4): 0
IC50 [1]: 1690 ± 172 µM
LogIC50 (fit of R 1/2 vs log(concentration μM), 8-oxo-dGTP, replicates N1-N4): 3.24 and 3.27 and 3.16 and 3.23
Bottom (best-fit value) [2]: 0.33 and -0.00509 and -0.0042 and -0.0316
HillSlope [2]: -4.72 and -6.07 and -3.06 and -3.86
Span (best-fit value) [2]: 2.87 and 3.02 and 2.71 and 3.30
Top (best-fit value) [2]: 3.21 and 3.01 and 2.70 and 3.27
IC50 [3]: 2000 µM
IC50 (repeat processivity R 1/2, 8-oxo-dGTP, single replicates N1-N4, read-out: IC50): 1740 µM and 1870 µM and 1460 µM and 1690 µM

Cc1cn([C@H]2C[C@H](N=[N+]=[N-])[C@@H](CO[P@](=O)(O)O[P@](=O)(O)OP(=O)(O)O)O2)c(=O)[nH]c1=O [AZT-TP]
IC50 [1]: 402 ± 169 µM
Best-fit values HillSlope (individual replicates): -0.83 and -0.51
Best-fit values Span (individual replicates): 2.37 and 4.19
Best-fit values LogIC50 (individual replicates): 2.72 and 2.45
Best-fit values Bottom (individual replicates): -0.33 and -0.59
Best-fit values Top (individual replicates): 2.04 and 3.59
IC50 [3]: 501 µM
Processivity R 1/2 [4]: 1.70 and 1.35
Processivity R 1/2 [5]: 0.80 and 0.64
Processivity R 1/2 [6]: 0.57 and 0.61
Processivity R 1/2 [7]: 0.00 and 0.49
Processivity R 1/2 (modified dNTP concentration 4000 μM, individual replicates): 0.00
IC50 [8]: 521 µM and 282 µM
IC50 [9]: 402 µM

O=c1[nH]cnc2c1ncn2C1CCC(COP(=O)(O)OP(=O)(O)OP(=O)(O)O)O1 (centres unmarked) [ddITP]
IC50 [1]: 61 ± 23 µM
YIntercept (line fit of ln(100-%LB) vs # telomere repeats) (ddITP 31μM): 3.68 and 3.90 and 3.32
ln(100-%LB) (ddITP 31μM, telomere repeat 1): 3.63 and 3.77 and 3.47
ln(100-%LB) (ddITP 31μM, telomere repeat 2): 2.96 and 3.17 and 2.59
ln(100-%LB) (ddITP 31μM, telomere repeat 3): 2.31 and 2.52 and 1.69
ln(100-%LB) (ddITP 31μM, telomere repeat 4): 1.98 and 2.18 and 1.18
YIntercept (line fit of ln(100-%LB) vs # telomere repeats) (ddITP 62μM): 4.03 and 4.15
ln(100-%LB) (ddITP 62μM, telomere repeat 1): 3.64 and 3.75
ln(100-%LB) (ddITP 62μM, telomere repeat 2): 2.81 and 2.79
ln(100-%LB) (ddITP 62μM, telomere repeat 3): 1.96 and 1.84
ln(100-%LB) (ddITP 62μM, telomere repeat 4): 1.44 and 1.17
ln(100-%LB) (ddITP 62μM, telomere repeat 5): 0.94 and 0.56
YIntercept (line fit of ln(100-%LB) vs # telomere repeats) (ddITP 250μM): 4.62 and 3.98
ln(100-%LB) (ddITP 250μM, telomere repeat 1): 3.84 and 3.61
ln(100-%LB) (ddITP 250μM, telomere repeat 2): 2.72 and 2.32
ln(100-%LB) (ddITP 250μM, telomere repeat 3): 1.42 and 1.15
ln(100-%LB) (ddITP 250μM, telomere repeat 4): 0.59 and 0.39
Slope (line fit of ln(100-%LB) vs # telomere repeats) (ddITP 500μM): -0.95
YIntercept (line fit of ln(100-%LB) vs # telomere repeats) (ddITP 500μM): 4.49
ln(100-%LB) (ddITP 500μM, telomere repeat 1): 3.63 and 3.72
ln(100-%LB) (ddITP 500μM, telomere repeat 2): 2.49 and 2.52
ln(100-%LB) (ddITP 500μM, telomere repeat 3): 1.54 and 1.27
ln(100-%LB) (ddITP 500μM, telomere repeat 4): 0.70 and 0.51
YIntercept (line fit of ln(100-%LB) vs # telomere repeats) (ddITP 750μM): 4.67 and 4.49
ln(100-%LB) (ddITP 750μM, telomere repeat 1): 3.72 and 3.79
ln(100-%LB) (ddITP 750μM, telomere repeat 2): 2.57 and 2.74
ln(100-%LB) (ddITP 750μM, telomere repeat 3): 1.55 and 1.58
ln(100-%LB) (ddITP 750μM, telomere repeat 4): 0.67 and 0.79
YIntercept (line fit of ln(100-%LB) vs # telomere repeats) (ddITP 1000μM): 4.63 and 4.20
ln(100-%LB) (ddITP 1000μM, telomere repeat 1): 3.82 and 3.80
ln(100-%LB) (ddITP 1000μM, telomere repeat 2): 3.01 and 3.04
ln(100-%LB) (ddITP 1000μM, telomere repeat 3): 2.22 and 2.25
ln(100-%LB) (ddITP 1000μM, telomere repeat 4): 1.56 and 1.76
ln(100-%LB) (ddITP 1000μM, telomere repeat 5): 0.86 and 1.29
Slope (line fit of ln(100-%LB) vs # telomere repeats) (ddITP 1500): -0.86
YIntercept (line fit of ln(100-%LB) vs # telomere repeats) (ddITP 1500): 4.62 and 4.48
ln(100-%LB) (ddITP 1500, telomere repeat 1): 3.74 and 3.65
ln(100-%LB) (ddITP 1500, telomere repeat 2): 2.90 and 2.79
ln(100-%LB) (ddITP 1500, telomere repeat 3): 2.03 and 1.76
ln(100-%LB) (ddITP 1500, telomere repeat 4): 1.25 and 1.21
ln(100-%LB) (ddITP 1500, telomere repeat 5): 0.25 and 0.17
Best-fit values HillSlope (individual replicates): -1.214 and -1.087 and -1.6
Best-fit values Span (individual replicates): 1.373 and 2.642 and 1.489
Best-fit values LogIC50 (individual replicates): 1.601 and 1.931 and 1.751
Best-fit values Bottom (individual replicates): 0.6806 and 0.1353 and 0.7679
Best-fit values Top (individual replicates): 2.054 and 2.778 and 2.257
IC50 [3]: 63.1 µM
Processivity R 1/2 [4]: 1.52 and 2.08 and 1.82
Processivity R 1/2 (modified dNTP concentration 62.5 μM, individual replicates): 1.13 and 1.82
Processivity R 1/2 (modified dNTP concentration 250 μM, individual replicates): 0.87 and 0.71
Processivity R 1/2 [5]: 0.8 and 0.73 (2×)
Processivity R 1/2 (modified dNTP concentration 750 μM, individual replicates): 0.8 and 0.49
Processivity R 1/2 [6]: 0.69 (2×) and 0.47
Processivity R 1/2 (modified dNTP concentration 1500 μM, individual replicates): 0.81 and 0.26 and 0.88
Processivity R 1/2 [7]: 0.45 and 0 and 0.81
IC50 [8]: 39.9 µM and 85.3 µM and 56.4 µM
IC50 [9]: 60.5 µM
